Reference: paper PMC8079033, “Design, synthesis, anticancer evaluation, and molecular modelling studies of novel tolmetin derivatives as potential VEGFR-2 inhibitors and apoptosis inducers” (Journal of Enzyme Inhibition and Medicinal Chemistry, 2021)

How the values were obtained:
[1] = system: caspase-3; assay: Caspase-3 (active) ELISA in HCT-15 cells; type: cell-based, human
Description: The level of the apoptotic marker caspase-3 was assessed using Human Caspase-3 (active) ELISA Kit Catalog # KHO1091. The procedure of the used kit was done according to the manufacturer’s instructions. Allow all reagents to reach room temperature before use. Gently mix all liquid reagents prior to use. Add 100 µl of the standard diluent buffer to the zero standard wells. Add 100 µl of standards and controls or diluted samples to the appropriate microtiter wells. Incubate for 2 h at room temperature. […] Incubate for 1 h at room temperature. Add 100 µl anti-rabbit IgG HRP working solution to each well. Prepare the working dilution and incubate for 30 min at room temperature. Add 100 µl of stabilised chromogen to each well. The liquid in the wells will begin to turn blue. Incubate for 30 min at room temperature and in the dark. Add 100 µl of stop solution to each well. The solution in the wells should change from blue to yellow. Read the absorbance of each well at 450 nm. Read the plate within 2 h after adding the stop solution. Use a curve fitting software to generate the standard curve. Read the concentrations for unknown samples and controls from the standard curve.
(§1) The activation of caspases as caspase-3, caspase-8, and caspase-9 is responsible for apoptosis, particularly caspase-3 which is an effector caspase that has an important role in apoptosis. It is activated by one of the initiator caspases which results in the activation of certain enzymes responsible for the fragmentation of DNA[53]. Caspase-8 and -9 are initiator caspases that are responsible for caspase-3 activation.

[2] = system: caspase-8; assay: Caspase-8 ELISA in HCT-15 cells; type: cell-based, human
Description: (§2) To measure caspase-8 and caspase-9 levels, DRG® Caspase-8 (human) (EIA-4863) ELISA and DRG® Caspase-9 (human) (EIA-4860) ELISA kits were used. Briefly, prepare cell extracts after induction of apoptosis. Resuspend the extracts in lysis buffer, incubate 60 min at room temperature, and centrifuge for 15 min. Wash the microwell strips with 400 µl wash buffer. Add 100 µl of sample diluent in duplicate to all standard wells. Add 100 µl of sample diluent in duplicate to the blank wells. Add 50 µl of sample diluent to the sample wells. Add 50 µl of each sample in duplicate to the sample wells. Add 50 µl of detection antibody to all wells and incubate at room temperature for 2 h. Add 100 µl of diluted anti-rabbit-IgG-HRP to all wells, including the blank wells. Pipette 100 µl of (3,3′,5,5′-Tetramethylbenzidine) TMB substrate solution to all wells and incubate at room temperature for about 15 min. Stop the enzyme reaction by pipetting 100 µl of stop solution into each well. Read absorbance of each microwell on a spectro-photometer using 450 nm. Determine the absorbance of both the samples and the standards.
as §1

[3] = system: HCT-15 cells; assay: Cell cycle analysis by flow cytometry (PI); type: cell-based, human
Description: After treatment, the cells were washed twice with ice-cold phosphate buffer saline (PBS), collected by centrifugation, and fixed in ice-cold 70% (v/v) ethanol, washed with PBS, resuspended with 0.1 mg/ml RNase, stained with […] propidium iodide (PI), and analysed by flow cytometry using FACS Calibur (Becton Dickinson)[45]. The cell cycle distributions were calculated using Cell- Quest software (Becton Dickinson).
Anticancer agents exert their cytotoxic action by aborting cellular proliferation at certain checkpoints. These checkpoints are distinguishable phases in the cell cycle, whose suppression results in the termination of the cell proliferation. Cell cycle analysis employs flow cytometry to distinguish cells within the different cell cycle phases. […] Moreover, marked augmentation in the proportion of cells in the G0-G1 phase by 1.32-fold, and in the Sub-G1 phase by 18.7-fold, in comparison to the control (DMSO).

[4] = target: T1, VEGFR-2 (KDR) (Homo sapiens, UniProt P35968); assay: VEGFR-2 (KDR) Kinase Assay Kit (Kinase-Glo Max luminescence); type: biochemical; conditions: mean ± SD of three experiments
T1 construct: purchased 40325
T1 sequence (P35968 20-1356): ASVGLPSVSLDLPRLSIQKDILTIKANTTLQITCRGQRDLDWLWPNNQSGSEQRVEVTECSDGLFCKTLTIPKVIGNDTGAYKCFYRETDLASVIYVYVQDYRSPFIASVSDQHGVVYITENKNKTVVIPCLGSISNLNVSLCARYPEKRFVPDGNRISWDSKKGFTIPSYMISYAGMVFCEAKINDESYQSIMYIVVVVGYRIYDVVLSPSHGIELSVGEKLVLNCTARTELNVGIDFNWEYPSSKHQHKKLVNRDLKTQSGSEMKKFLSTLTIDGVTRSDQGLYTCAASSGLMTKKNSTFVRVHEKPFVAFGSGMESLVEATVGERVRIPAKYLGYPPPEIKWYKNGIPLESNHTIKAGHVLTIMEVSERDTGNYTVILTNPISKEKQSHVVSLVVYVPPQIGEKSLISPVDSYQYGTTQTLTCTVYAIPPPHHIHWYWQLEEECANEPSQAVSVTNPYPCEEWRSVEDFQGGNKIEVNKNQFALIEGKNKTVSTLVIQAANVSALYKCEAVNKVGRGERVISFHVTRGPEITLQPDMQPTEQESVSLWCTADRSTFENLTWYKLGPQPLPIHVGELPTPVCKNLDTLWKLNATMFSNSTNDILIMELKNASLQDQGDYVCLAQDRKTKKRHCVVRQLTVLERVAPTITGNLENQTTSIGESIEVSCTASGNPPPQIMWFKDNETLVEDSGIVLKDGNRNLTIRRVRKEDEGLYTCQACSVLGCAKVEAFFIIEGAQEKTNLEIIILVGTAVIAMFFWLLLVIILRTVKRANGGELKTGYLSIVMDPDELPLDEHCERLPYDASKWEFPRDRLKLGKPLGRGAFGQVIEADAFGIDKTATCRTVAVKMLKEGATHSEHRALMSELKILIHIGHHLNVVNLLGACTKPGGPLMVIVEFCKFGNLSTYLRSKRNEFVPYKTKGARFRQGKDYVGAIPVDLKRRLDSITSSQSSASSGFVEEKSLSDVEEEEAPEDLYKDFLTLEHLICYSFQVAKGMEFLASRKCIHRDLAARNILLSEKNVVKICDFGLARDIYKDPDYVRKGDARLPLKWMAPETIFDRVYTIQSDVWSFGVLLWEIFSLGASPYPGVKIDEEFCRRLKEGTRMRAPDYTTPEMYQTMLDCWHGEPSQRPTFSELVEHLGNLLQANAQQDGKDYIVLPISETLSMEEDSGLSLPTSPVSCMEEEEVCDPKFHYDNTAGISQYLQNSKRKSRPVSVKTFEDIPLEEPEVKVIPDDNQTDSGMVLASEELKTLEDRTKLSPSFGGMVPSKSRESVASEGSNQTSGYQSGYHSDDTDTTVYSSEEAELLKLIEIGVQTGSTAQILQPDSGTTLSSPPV
Description: In brief, the master mixture (25 µl per well) was prepared and added to each well. 5 µl of inhibitor solution of each well labelled as “Test Inhibitor” was added. For the “Positive Control” and “Blank,” 5 µl of the same solution without inhibitor (Inhibitor buffer) was added. 3 ml of kinase buffer was prepared by mixing 600 µl of kinase buffer with 2400 µl water. To the wells designated as “Blank,” 20 µl of kinase buffer was added. The amount of VEGFR-2 required for the assay was calculated and the enzyme was diluted to 1 ng/µl with kinase buffer. The reaction was initiated by adding 20 µl of diluted VEGFR-2 enzyme to the wells designated “Positive Control” and “Test Inhibitor Control.” The mixtures were incubated at 30 °C for 45 min. After the 45 min, 50 µl of Kinase-Glo Max reagent was added to each well. The plate was incubated at room temperature for 15 min. Luminescence was measured using the microplate reader.

[5] = system: caspase-9; assay: Caspase-9 ELISA in HCT-15 cells; type: cell-based, human
Description: as §2, §1

[6] = system: HCT-15 cells; assay: Annexin V-FITC/PI apoptosis assay; type: cell-based, human
Description: Apoptosis was determined by staining the cells with Annexin V fluorescein isothiocyanate (FITC) and counterstaining with PI using the Annexin V-FITC/PI apoptosis detection kit (BD Biosciences, San Diego, CA) according to the manufacturer’s instructions. […] The cells then were collected by trypsinization and 0.5 × 10^6 cells were washed twice with PBS and stained with 5 µl Annexin V-FITC and 5 µl PI in 1 × binding buffer for 15 min at room temperature in the dark. Analyses were performed using FACS Calibur flow cytometer (BD Biosciences, San Jose, CA).
This clearly verifies that, cell death resulting from the antiproliferative action of the target tolmetin derivative 5b was attributable to physiological apoptosis.

[7] = system: HUVECs; assay: Wound healing assay (CytoSelect 24-well); type: cell-based, human; conditions: 72 h, 5b 2.4 µM, sunitinib 3.2 µM, control 97.03 ± 5.47
Description: Wound healing assay of compound 5b was evaluated using CytoSelect™ 24-Well Wound Healing Assay kit Catalog # CBA-120 according to manufacturer’s instructions. In brief, the 24-well plate wound healing inserts were allowed to warm up at room temperature for 10 minutes, then to each well, 500 µl of human umbilical vascular endothelial cells (HUVECs) suspension (1.0 × 10^6) in media containing 10% fetal bovine serum (FBS) was added. Cells were kept in a cell culture incubator until a monolayer form. Carefully the insert was removed from the well. The media were slowly aspirated and discarded from the wells. The wells were washed with media to remove dead cells and debris. Finally, the media were added to wells to keep cells hydrated, then wells were visualized under a light microscope. […] The percent closure of the cells into the wound field was measured.
One of the hallmarks of angiogenesis is cell migration, which happens in the earlier stages of the angiogenic cascade. A wound-healing assay was performed to investigate in vitro anti-angiogenic property of compound 5b.

Cc1ccc(C(=O)c2ccc(CC(=O)NN=Cc3cccc(O)c3O)n2C)cc1 [Compound 5b, N′-(2,3-Dihydroxybenzylidene)-2–(1-methyl-5–(4-methylbenzoyl)-1H-pyrrol-2-yl) acetohydrazide]
Caspase-3 ([1]; mean ± SD of three experiments, control 0.073 ± 0.01): 0.570 ± 0.01 ng/mL | increase in the level of caspase-3 ([1]; vs control): 7.808 fold | Caspase-8 ([2]; mean ± SD of three experiments, control 0.377 ± 0.03): 0.704 ± 0.06 ng/mL | increase in the level of caspase-8 ([2]; vs control): 1.867 fold | augmentation in the proportion of cells in the G0-G1 phase ([3]; 6.62 µM, vs control (DMSO)): 1.32 fold | decline in the cell population at the G2/M phase ([3]; 6.62 µM, vs control (DMSO)): 65.61% | decline in the cell population at the S phase ([3]; 6.62 µM, vs control (DMSO)): 16.88% | %Pre-G1 ([3]; IC50 concentration (6.62 µM), 24 h, control 1.46): 37.29% | %G2/M ([3]; IC50 concentration (6.62 µM), 24 h, control 6.95): 2.39% | %G0–G1 ([3]; IC50 concentration (6.62 µM), 24 h, control 41.69): 54.92% | %S ([3]; IC50 concentration (6.62 µM), 24 h, control 51.36): 42.69% | IC50 [4]: 200 ± 20 nM | Caspase-9 ([5]; mean ± SD of three experiments, control 3.225 ± 0.44): 24.58 ± 0.82 ng/mL | increase in the level of caspase-9 ([5]; vs control): 7.622 fold | Apoptosis Late ([6]; IC50 concentration, 24 h, control 0.13): 22.12% | Apoptosis Early ([6]; IC50 concentration, 24 h, control 0.34): 2.66% | Apoptosis Total ([6]; IC50 concentration, 24 h, control 0.47): 24.78% | Necrosis ([6]; IC50 concentration, 24 h, control 0.99): 12.51% | increase in the total apoptosis percentage ([6]; vs control (DMSO)): 52.72 fold | Wound closure percentage [7]: 51.85 ± 2.92%
